Assay results as given in ChEMBL document CHEMBL1126529, “A diazine heterocycle replaces a six-membered hydrogen-bonded array in the active site of scytalone dehydratase” (Bioorg Med Chem Lett, 1993).

biological target: T1, Scytalone dehydratase (Magnaporthe oryzae (strain 70-15 / FGSC 8958) (Rice blast fungus)(Pyricularia oryzae), UniProt P56221); experiment: The inhibitory activity (Ki) of the deprotonated compound was measured against scytalone dehydratase at pH 9.8; design: species or system Pyricularia grisea
T1 sequence (P56221 whole entry): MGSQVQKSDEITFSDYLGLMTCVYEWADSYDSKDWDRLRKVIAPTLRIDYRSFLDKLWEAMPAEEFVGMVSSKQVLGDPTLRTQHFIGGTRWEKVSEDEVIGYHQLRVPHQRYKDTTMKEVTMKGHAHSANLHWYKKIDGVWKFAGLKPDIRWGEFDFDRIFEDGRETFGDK

SMILES	Ki [nM]
c1ccc(CCCNc2nccc3ccccc23)cc1	2300
O=C(NCCCc1ccccc1)c1ccccc1O	230
c1ccc(CCCNc2ccnc3ccccc23)cc1	45000
c1ccc(CCCNc2ncnc3ccccc23)cc1	19

biological target: T1, Scytalone dehydratase; experiment: The inhibitory activity (Ki) of the protonated compound was measured against scytalone dehydratase at pH 7.0; design: species or system Pyricularia grisea

SMILES	Ki [nM]
c1ccc(CCCNc2nccc3ccccc23)cc1	6700
O=C(NCCCc1ccccc1)c1ccccc1O	7.3
c1ccc(CCCNc2ccnc3ccccc23)cc1	88000
c1ccc(CCCNc2ncnc3ccccc23)cc1	1800
